Assay results taken from patent US20040127519A1 (Pharmacia Corporation, priority 2002, published 2004).

Molecular target: Recombinant MAPKAPK2 (Homo sapiens, UniProt P49137)
Test: Determination of MK-2 IC50 (HSP-peptide phosphorylation, anion exchange resin capture assay)
Assay type: biochemical
Details: MK-2 Avg. IC50, Table 2, tricyclic aminocyanopyridine MK-2 inhibitors
Procedure: The phosphorylation of HSP-peptide ([…]) by MAPKAPK2 was measured using an anion exchange resin capture assay method. […] The reaction was terminated and [γ^33P]ATP was removed from solution by the addition of 150 μl of AG 1×8 ion exchange resin in 900 mM sodium formate pH 3.0. A 50 μl aliquot of head volume was removed from the quenched reaction mixture and added to a 96-well plate, 150 μl of Microscint-40 (Packard) was added and the amount of phosphorylated-peptide was determined. Allow the Microscint to sit in the plates for 60 minutes prior to counting.
Compounds are evaluated as potential inhibitors of the MK2 kinase by measuring their effects on MK2 phosphorylation of the peptide substrate. Compounds may be screened initially at two concentrations prior to determination of IC50 values. Screening results are expressed as percent inhibition at the concentrations of compound tested. For IC50 value determinations, compounds are tested at six concentrations in ten-fold serial dilutions with each concentration tested in triplicate. Results are expressed as IC50 values in micromolar. The assay is performed at a final concentration of 2% DMSO.

Sequence of Recombinant MAPKAPK2 (P49137 whole entry, species assumed): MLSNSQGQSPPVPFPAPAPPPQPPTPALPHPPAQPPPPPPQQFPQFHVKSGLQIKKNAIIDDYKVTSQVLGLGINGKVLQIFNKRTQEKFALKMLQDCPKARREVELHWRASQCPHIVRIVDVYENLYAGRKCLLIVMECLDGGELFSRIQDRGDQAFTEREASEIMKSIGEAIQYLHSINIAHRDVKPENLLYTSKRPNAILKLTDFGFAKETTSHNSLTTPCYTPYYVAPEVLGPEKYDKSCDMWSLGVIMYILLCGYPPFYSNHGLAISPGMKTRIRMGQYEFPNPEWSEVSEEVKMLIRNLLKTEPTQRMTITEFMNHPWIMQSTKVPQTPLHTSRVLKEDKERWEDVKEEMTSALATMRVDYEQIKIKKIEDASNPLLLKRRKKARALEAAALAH

SMILES | IC50
COc1ccc(Nc2c(C#N)c(N)nc3c2Cc2cc(OC)c(OC)cc2O3)cc1 [Example 33] | 2.98 µM
COc1ccc2c(c1)Oc1nc(N)c(C#N)c(N)c1C2c1ccccc1F (centres unmarked) [Example 69] | 151 µM
N#Cc1c(N)nc2c(c1N)Cc1cc(C(=O)O)ccc1O2 [Example 20] | 0.857 µM
N#Cc1c(N)nc2c(c1N)Cc1ccc(O)c(O)c1O2 [Example 21] | 0.857 µM
CNc1c(C#N)c(N)nc2c1Cc1cc(OC)c(OC)cc1O2 [Example 26] | 1.69 µM
N#Cc1c(N)nc2c(c1N)Cc1ccc(OCCO)cc1O2 [Example 10] | 0.483 µM
CCOCCNc1c(C#N)c(N)nc2c1Cc1ccc(OCCOCC)cc1O2 [Example 44] | 9.66 µM
COc1cc2c(cc1OC)Oc1nc(N)c(C#N)c(NCCN)c1C2 [Example 46] | 11.5 µM
N#Cc1c(N)nc2c(c1N)Cc1cc(N)ccc1O2 [Example 12] | 0.514 µM
COc1ccc2c(c1)Oc1nc(N)c(C#N)c(N)c1C2 [Example 27] | 1.72 µM
N#Cc1c(N)nc2c(c1N)Cc1ccc(CN3CCCCC3)c(O)c1O2 [Example 42] | 8.28 µM
CC(C)(C)OC(=O)COc1cc2c(cc1OCC(=O)OC(C)(C)C)Oc1nc(N)c(C#N)c(N)c1C2 [Example 45] | 10.3 µM
N#Cc1c(N)nc2c(c1N)Cc1cccc(F)c1S2 [Example 57] | 42.2 µM
COc1cc2c(cc1OC)Oc1nc(N)c(C#N)c(NCCN(C)C)c1C2 [Example 63] | 79.1 µM
N#Cc1c(N)nc2c(c1N)Cc1cccc(OCC(=O)O)c1O2 [Example 62] | 72.2 µM
CN(C)CCOc1ccc2c(c1)Oc1nc(N)c(C#N)c(N)c1C2 [Example 28] | 1.75 µM
COc1ccc2c(c1)Cc1c(nc(N)c(C#N)c1N)O2 [Example 53] | 19.7 µM
COc1cc2c(cc1OC)Oc1nc(N)c(C#N)c(NCc3ccccc3)c1C2 [Example 55] | 27.4 µM
Cc1cc(Cl)cc2c1Oc1nc(N)c(C#N)c(N)c1C2 [Example 66] | 136 µM
N#Cc1c(N)nc2c(c1N)Cc1cc([N+](=O)[O-])ccc1O2 [Example 60] | 62.2 µM
COc1ccc2c(c1O)Oc1nc(N)c(C#N)c(N)c1C2 [Example 15] | 0.682 µM
CCOCCOc1cc2c(cc1O)Cc1c(nc(N)c(C#N)c1N)O2 [Example 14] | 0.62 µM
N#Cc1c(N)nc2c(c1N)Cc1cc(N)ccc1S2(=O)=O [Example 48] | 14.4 µM
N#Cc1c(N)nc2c(c1N)Cc1ccc(OCCN)cc1O2 [Example 19] | 0.82 µM
CCNc1nc2c(c(NCC)c1C#N)Cc1ccc(OCC)cc1O2 [Example 68] | 148 µM
COc1cc(N)cc2c1Oc1nc(N)c(C#N)c(N)c1C2 [Example 29] | 1.79 µM

Same assay, conditions: MK-2 Avg. IC50, Table I, aminocyanopyridine MK-2 inhibitors

SMILES | IC50
N#Cc1c(-c2ccco2)cc(-c2cccc(B(O)O)c2)nc1N [Example 124] | 126 µM
COc1ccnc(N)c1C#N [Example 91] | 69.6 µM
N#Cc1c(-c2cnc[nH]2)cc(-c2ccco2)nc1N [Example 17] | 4.94 µM
CS(=O)(=O)c1ccc(-c2cc(-c3cnc[nH]3)c(C#N)c(N)n2)cc1 [Example 72] | 45.3 µM
N#Cc1c(N)nc2c(c1-c1ccco1)CCc1c(O)cccc1-2 [Example 101] | 82.6 µM
N#Cc1c(-c2ccco2)cc(-c2ccccn2)nc1N [Example 132] | 149 µM
N#Cc1c(-c2ccco2)cc(-c2cccc3cccc(O)c23)nc1N [Example 133] | 153 µM
N#Cc1c(-c2ccc(Br)cc2)cc(-c2ccco2)nc1N [Example 126] | 130 µM
N#Cc1c(N)nc2ccccc2c1N [Example 73] | 45.5 µM
N#Cc1c(-c2c[nH]c(C(=O)O)c2)cc(-c2ccco2)nc1N [Example 76] | 48.7 µM
CC1Cc2n[nH]cc2-c2nc(N)c(C#N)c(-c3ccco3)c21 (centres unmarked) [Example 59] | 31.3 µM
COc1cc(N)c(C#N)c(N)n1 [Example 79] | 50.9 µM
N#Cc1c(N)nc2c(c1-c1ccncc1)CCc1n[nH]cc1-2 [Example 103] | 94.3 µM
N#Cc1c(N)nc2c(c1N)CC(COC(F)(F)C(F)F)O2 (centres unmarked) [Example 127] | 131 µM
N#Cc1c(N)nc2c(c1-c1ccco1)CCc1cnccc1-2 [Example 26] | 6.48 µM
COC(=O)c1ccc(-c2cc(-c3ccco3)c(C#N)c(N)n2)cc1 [Example 150] | 199 µM
Cn1ccc(-c2cc(-c3ccco3)c(C#N)c(N)n2)c1 [Example 60] | 32.1 µM
CS(=O)(=O)Nc1ccc(-c2cc(-c3ccco3)c(C#N)c(N)n2)cc1 [Example 33] | 9.27 µM
N#Cc1c(-c2cccc(F)c2)cc(-c2ccco2)nc1N [Example 139] | 164 µM
N#Cc1c(N)nc2c(c1-c1cccc(F)c1F)CCc1[nH]ncc1-2 [Example 3] | 1.95 µM
N#Cc1c(-c2cnc[nH]2)cc(-c2ccccc2)nc1N [Example 45] | 14.2 µM
CC1Cc2c(nc(N)c(C#N)c2-c2ccco2)-c2ccccc21 (centres unmarked) [Example 117] | 119 µM

SMILES | IC50
N#Cc1c(-c2ccco2)cc(-c2ccncc2)nc1N [Example 66] | 39.9 µM
N#Cc1c(-c2ccccc2F)cc(-c2ccco2)nc1Nc1ccccc1 [Example 138] | 162 µM
N#Cc1c(N)nc2c(c1-c1c(F)cccc1F)CCc1[nH]ncc1-2 [Example 11] | 3.59 µM
N#Cc1c(N)nc2c(c1N)CC(CCl)O2 (centres unmarked) [Example 44] | 13.4 µM
N#Cc1c(-c2ccccc2F)cc(-c2ccco2)nc1N [Example 13] | 4.06 µM
N#Cc1c(N)nc2c(c1N)CC(CO)O2 (centres unmarked) [Example 111] | 106 µM
CC(C)(C)NS(=O)(=O)c1ccc(-c2cc(-c3ccco3)c(C#N)c(N)n2)cc1 [Example 64] | 36.4 µM
N#Cc1c(N)nc2c(c1-c1cccnc1)CCc1n[nH]cc1-2 [Example 86] | 62.5 µM
COc1ccc(Nc2c(C#N)c(N)nc3c2CC(C(F)(F)F)O3)cc1 (centres unmarked) [Example 63] | 36.4 µM
COc1cccc(-c2c(C#N)c(N)nc3c2CCc2[nH]ncc2-3)c1 [Example 56] | 27.8 µM
N#Cc1c(-c2ccco2)cc(-c2ccc(B(O)O)cc2)nc1N [Example 47] | 16.7 µM
N#Cc1c(-c2cnc[nH]2)cc(-c2ccc(Cl)cc2)nc1N [Example 69] | 42.9 µM
N#Cc1c(N)nc2c(c1-c1nnc[nH]1)CCc1cc(C(=O)O)ccc1-2 [Example 19] | 5.74 µM
Cn1ncc2c1CCc1c-2nc(N)c(C#N)c1-c1ccco1 [Example 57] | 28.3 µM
N#Cc1c(N)nc2c(c1-c1ccccc1F)CCc1ccccc1-2 [Example 15] | 4.47 µM
N#Cc1c(N)nc2c(c1-c1nnc[nH]1)CCc1ccccc1-2 [Example 43] | 13.1 µM
N#Cc1c(-c2ccccc2Br)cc(-c2ccco2)nc1N [Example 53] | 26.1 µM
N#Cc1c(-c2ccccc2)cc(-c2cccs2)nc1N [Example 55] | 26.9 µM
CC(C)(C)NS(=O)(=O)c1ccc(-c2cc(-c3ccccc3F)c(C#N)c(N)n2)cc1 [Example 95] | 71.5 µM
N#Cc1c(N)nc2c(c1-c1ccco1)CCc1cc(C(=O)O)ccc1-2 [Example 5] | 2.35 µM
CC(C)OCC1Cc2c(nc(N)c(C#N)c2N)O1 (centres unmarked) [Example 123] | 125 µM
N#Cc1c(N)nc2c(c1-c1cccc(C(=O)O)c1)CCc1[nH]ncc1-2 [Example 68] | 41.7 µM

SMILES | IC50
N#Cc1c(N)nc2c(c1-c1ccco1)CCc1cc(O)ccc1-2 [Example 10] | 3.48 µM
N#Cc1c(-c2ccco2)cc(-c2ccsc2)nc1N [Example 106] | 97.3 µM
N#Cc1c(N)nc2c(c1N)CC(C(F)(F)F)O2 (centres unmarked) [Example 23] | 6.14 µM
N#Cc1c(N)nc2c(c1-c1cccc(F)c1)CCc1n[nH]cc1-2 [Example 31] | 8.5 µM
N#Cc1c(-c2ccco2)cc(-c2ccc(-n3ccnc3)cc2)nc1N [Example 120] | 121 µM
N#Cc1c(N)nc2c(c1N)Cc1cccc(OCC(=O)O)c1O2 [Example 96] | 72.2 µM
N#Cc1c(-c2ccccc2B(O)O)cc(-c2ccco2)nc1N [Example 108] | 99.6 µM
CC1Cc2c(nc(N)c(C#N)c2N)O1 (centres unmarked) [Example 71] | 44.1 µM
N#Cc1c(-c2cccc(F)c2)cc(-c2ccc(O)cc2)nc1N [Example 104] | 96 µM
N#Cc1c(N)nc2c(c1-c1cccc3c1OCO3)CCc1[nH]ncc1-2 [Example 70] | 43.2 µM
N#Cc1c(-c2ccco2)cc(-c2ccc(Cl)c(Cl)c2)nc1N [Example 135] | 156 µM
COc1ccc(-c2cc(-c3cnc[nH]3)c(C#N)c(N)n2)cc1 [Example 37] | 9.43 µM
N#Cc1c(-c2ccccc2F)cc(-c2ccc(O)c(O)c2)nc1N [Example 27] | 7.54 µM
N#Cc1c(-c2cnc[nH]2)cc(-c2cccc(O)c2)nc1N [Example 20] | 5.81 µM
N#Cc1c(-c2ccco2)cc(-c2c[nH]c3ccccc23)nc1N [Example 119] | 120 µM
COCC1Cc2c(nc(N)c(C#N)c2N)O1 (centres unmarked) [Example 118] | 119 µM
N#Cc1c(-c2ccco2)cc(-c2ccc(Cl)cc2)nc1N [Example 144] | 182 µM
Cn1cnc(-c2cc(-c3ccco3)nc(N)c2C#N)c1 [Example 8] | 2.88 µM
N#Cc1c(-c2ccccc2F)cc(-c2ccc(C(=O)O)cc2)nc1N [Example 25] | 6.4 µM
N#Cc1c(N)nc2c(c1-c1ccco1)CCc1ccccc1-2 [Example 36] | 9.42 µM
N#Cc1c(-c2ccco2)cc(-c2ccc(S(N)(=O)=O)cc2)nc1N [Example 46] | 16.1 µM
N#Cc1c(-c2ccccc2F)cc(-c2ccco2)nc1N [Example 14] | 4.41 µM
